Patent US20060287395A1, “Pharmaceutical composition for the therapy of lower urinary tract symptoms” (ASTELLAS PHARMA INC., priority 1999, published 2006)
Where a name gives a salt, the structure may show the parent alone.

Assays:
[1] = system: patients suffering from lower urinary tract symptoms; assay: Clinical test to patients suffering from lower urinary tract symptoms (twelve-week test); assay type: in vivo, human; settings: total score for subjective symptom, QOL index and test on functions
Procedure: A clinical test was carried out under the following conditions using the patients suffering from lower urinary tract symptoms. Subjects: eighteen patients diagnosed as lower urinary tract symptoms, i.e. urinary disturbance without clear organic or neurological abnormality in lower urinary tract (15 males and 3 female, age: 57.2±14.2). Test drug and administering method: One capsule containing 0.2 mg of tamsulosin hydrochloride was orally administered once daily after breakfast for four weeks and, after that, the dose after 4 weeks was controlled in consideration of the following criterion, and the dose was orally administered once daily after breakfast. [table] Test period: twelve weeks (84 days) (4 weeks (28 days) for 8 males) Observed items: Evaluations and measurements were made for the following items before and after the administration. (1) Total score for subjective symptoms Total scores for the following <1>˜<7> before and after the administration were obtained in the same way as in Test Example 1. <1> Feel of residual urine, <2> Urination within two hours, <3> Break of urinary stream, <4> Urgency, <5> Force of urinary stream, <6> Straining upon urination and <7> Frequency of urination at night. (2) QOL Index “How do you think if the present urinating state continues in future as well?” (3) Test on Functions <1> maximum urinary stream rate <2> average urinary stream rate

[2] = system: patients suffering from lower urinary tract symptoms; assay: Clinical test to patients suffering from lower urinary tract symptoms (four-week test); assay type: in vivo, human; settings: total score for subjective symptom and QOL index
Procedure: A clinical test was carried out under the following conditions using the patients suffering from lower urinary tract symptoms. (cf. Chapter 1: Indexes for Evaluation of Prostatic Hypertrophy in “Guideline for Clinical Test for Urinary Disturbance” published by Iyaku Tosho Shuppan) Subjects: four patients diagnosed as lower urinary tract symptoms, i.e. urinary disturbance without clear organic or neurological abnormality in lower urinary tract (3 males and 1 female). Test drug and administering method:. One capsule containing 0.2 mg of tamsulosin hydrochloride was orally administered once daily after breakfast. Test period: four weeks (28 days) Observed items: Evaluations and measurements were made for the following items before and after the administration. (1) Total score for subjective symptoms Questioning was done to the patients for the following items and the total score was obtained. (2) QOL Index With regard to an index for quality of life (QOL), a questioning that “How do you think if the present urinary condition continues in future as well?” was done as a total diagnosis concerning the urinary disturbance and any of the following evaluations was collected.

`CCOc1ccccc1OCCN[C@H](C)Cc1ccc(OC)c(S(N)(=O)=O)c1` [tamsulosin hydrochloride, (R)(−)-5-[2-[[2-(o-ethoxyphenoxy)ethyl]amino]propyl]-2-methoxybenzene-sulfonamide] was tested, and the “Overall conclusion on efficacy as therapeutic agent for lower urinary tract symptoms” value [1] was “confirmed to be effective” and the “Overall conclusion on efficacy as therapeutic agent for lower urinary tract symptoms” value [2] was “confirmed to be effective”.
